Results published in patent publication US20110009616A1, “AGENT FOR PREVENTING ARTERIOSCLEROSIS” (priority 2006, published 2011).

Legend:
[1] = test system: caveola transport pathway; assay: Uptake of CTB, transport marker of caveola pathway, into COS-1 cells (Example 7); assay type: cell-based, African green monkey; details: FIG. 6
[2] = test system: normal bovine aortic endothelial cell (BAEC); assay: DiI-OxLDL uptake into normal bovine aortic endothelial cells (Example 7); assay type: cell-based; details: FIG. 6
[3] = rats, intravenous injection; Non-patent Document 17; cited from earlier work
bLOX-1 = bLOX-1 (Bos taurus, UniProt P79391); assay: Plate assay: binding of oxidized LDL to recombinant bLOX-1 (Test Example 1); design: 6xHis (N); made in house; host or cells: E. coli; species or system bovine
Description: A LOX-1 antagonist activity of the agent for preventing arteriosclerosis obtained in the above-mentioned Example was evaluated on a LOX-1 binding inhibition rate to oxidized LDL using a recombinant LOX-1 protein obtained from E. coli.
As for the recombinant LOX-1, in cDNA of LOX-1 derived from bovine (bLOX-1) or derived from human (hLOX-1), a sequence to the C-terminal removing a transmembrane region was inserted into a pQE30 vector having a 6-histidine tag sequence (6×His) at the N-terminal (manufactured by Qiagen) so as to have a sequence aligned to a translation frame. The vector was transformed into E. coli able to be controlled by T5 promoter and the expression of each LOX-1 was induced under induction of 1 m M of isopropyl-1-thio-β-D-[…] (IPTG). After the induction of each expression at 37° C. for 3 hours, since the recombinant LOX-1 was obtained from an insoluble fraction, E. coli was lysed in a buffer containing 6 M guanidine hydrochloride and purified by affinity column chromatography using a Ni-NTA agarose column (manufactured by Qiagen) as the marker of 6×His (solvent: phosphoric acid buffer). Furthermore, each of the elution fractions containing LOX-1 was dialyzed in a 20 mM tris buffer (pH 9.0) and a 8M urea containing buffer, applied to a HiTrap Q column, an anion exchanger, (manufactured by Amersham), and eluted and purified with a linear concentration gradient of NaCl. Each of the fractions containing LOX-1 obtained above was reduced in a buffer containing excess amount of DTT (dithiothreitol), and then intramolecular S-S bonds were unwinded by a redox system using a mixture of oxidized […] low molecular thiol compounds. Each LOX-1 obtained above has a binding ability to the oxidized LDL and will be used as a LOX-1 standard for the following plate assays.
The plate assay was carried out using MaxiSorp Immuno Plate (96-well type, manufactured by NUNC). Each LOX-1 purified above was prepared with a PBS buffer so as to be 5 μg/mL, and 100 μL of the solution was applied to each well. After leaving at 4° C. overnight, each well was washed with 400 μL of a PBS buffer twice (400 μL×2) and 300 μL of a PBS buffer containing 25% BlockAce (manufactured by Dainippon Sumitomo Pharma Co., Ltd.) was applied to each well. After leaving at 4° C. overnight, each well was washed with 400 μL of a PBS buffer twice (400 μL×2), a solution of ethyl pheophorbide a was prepared with a PBS buffer containing 1% bovine serum albumin (BSA) so as to have an appropriate dilution rate, and 100 μL of the solution was applied to each well. After leaving at 4° C. overnight, each well was washed with 400 μL of a PBS buffer three times (400 μL×3), a solution of oxidized LDL was prepared with a PBS buffer so as to be 5 μg/mL, and 100 μL of the solution was applied to eachr well. After leaving at 4° C. overnight, each well was washed with 400 μL of a PBS buffer three times (400 μL×3), a horseradish peroxidase-conjugated anti-apolipoprotein B antibody (manufactured by The Binding Site) was diluted 1000 times with a PBS buffer, and 100 μL of the solution was applied to each well. After leaving at room temperature for 2 hours, each well was washed with 400 μL of a PBS buffer five times (400 μL×5), and 100 μL of a 3,3′,5,5′-tetramethylbenzidine (TMB) peroxidase-enzyme immunoassay (EIA)-substrate-kit reagent (manufactured by Bio-Rad) was applied to each well. After an appropriate reaction period, 50 μL of 2M H2SO4 was applied to each well to stop the reaction. Finally, a LOX-1 antagonist activity (an oxidized LDL binding inhibition rate to LOX-1) was determined by detection at 450 nm.

Sequence of bLOX-1 (P79391 57-270 limits assumed): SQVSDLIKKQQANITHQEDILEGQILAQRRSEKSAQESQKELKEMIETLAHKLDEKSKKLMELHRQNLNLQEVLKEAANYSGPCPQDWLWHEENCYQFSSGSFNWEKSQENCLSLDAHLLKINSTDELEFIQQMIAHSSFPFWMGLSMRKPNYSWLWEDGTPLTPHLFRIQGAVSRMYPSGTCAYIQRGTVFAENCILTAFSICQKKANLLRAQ

In the case of C=Cc1c(C)c2cc3nc(c4c5[nH]c(cc6nc(cc1[nH]2)C(C)=C6CC)c(C)c5C(=O)[C@@H]4C(=O)OC)[C@@H](CCC(=O)O)[C@@H]3C [pheophorbide a], the “inhibition of caveola transport pathway (CTB uptake)” value [1] is given as “inhibits the caveola transport pathway significantly”, the “inhibitory activity on DiI-OxLDL uptake, compared with anti-LOX-1 antibody” value [2] is given as “stronger than that of the anti-LOX-1 antibody” and the accumulation to skin [3] is given as “low”. The main accumulation target [3] was “reticuloendothelial system”, the IC50 (bLOX-1; concentration dependence, FIG. 2) was roughly 0.1 µM and the “inhibition activity on binding of oxidized LDL to bLOX-1 (ranking among actives)” value (bLOX-1; final concentration of 16 μM, FIG. 1) was “high inhibition activities”. The “binding rate of oxidized LDL to bLOX-1 (inhibition of binding)” value (bLOX-1; final concentration of 16 μM, FIG. 1, control without compounds = 100) was “inhibit the binding significantly”.
